The text below walks through data of ChEMBL document CHEMBL1134362, “New 3'-azido-3'-deoxythymidin-5'-yl O-(omega-hydroxyalkyl) carbonate prodrugs: synthesis and anti-HIV evaluation” (J Med Chem, 2001).

The structures appear in SMILES notation. Some results are limits rather than exact numbers.

One series relates to MT4. As to the kind of experiment: Cytotoxicity against MT-4 (human leukemia) cells. The series is classed as functional.
Series [1] can be described thus: Selectivity index (CC50/EC50). It counts as functional.
The subject of series [2] is Human immunodeficiency virus 1. The series can be described thus: Inhibition of HIV-1 (BRU) cytopathicity in MT-4 (human leukemia). The series is classed as functional, organism-based. A general note: Protection from cytopathic effect is a common read-out in antiviral testing.
The species named for a further series is Homo sapiens. The series can be described thus: Time required for 50%hydrolysis of prodrug to AZT in normal human serum was determined. The series is classed as ADME, organism-based.
Series [3] in a line: Partition coefficient (logP). As to conditions: octanol/water. It counts as physicochemical.
Series [4] has as its system Human immunodeficiency virus 1. As to the kind of experiment: Inhibition of HIV-1 (BaL) cytopathicity in human peripheral blood mononuclear cells. It counts as functional, organism-based.
Series [5] is described as follows: (§1) Cytotoxicity against human peripheral blood mononuclear cells. It counts as functional.
Series [6] in a line: as §1. The series is classed as functional. This is another data set of the same source.
The subject of series [7] is Human immunodeficiency virus 1. The series can be described thus: Inhibition of HIV-1 (IIIB) cytopathicity in human peripheral blood mononuclear cells. The series is classed as functional, organism-based.

On to `Cc1cn(C2CC(N=[N+]=[N-])C(COC(=O)CCCC(=O)OC(C)(C)C)O2)c(=O)[nH]c1=O` (stereo not given), for which the CC50 – broadly, the concentration at which the toxic effect on the cells reaches its halfway point – in the series with MT4 is greater than 50000 nM. In series [1], the SI is greater than 10000. For the same molecule, the EC50 (in general, the concentration that produces a half-maximal response) in series [2] was 5 nM. Moreover, the T1/2 in the series filed under Homo sapiens stood at 33 min. Besides, the logP (commonly a log measure of how a compound divides between an organic and an aqueous phase) in [3] (read-out: logP) was determined as 1.17.

On to `Cc1cn(C2CC(N=[N+]=[N-])C(COC(=O)CCCO)O2)c(=O)[nH]c1=O` (stereo not given), for which, in [3] (read-out: logP), the logP was -0.95.

With `Cc1cn(C2CC(N=[N+]=[N-])C(COC(=O)NCCCN)O2)c(=O)[nH]c1=O` (stereo not given), in the series with MT4, the CC50 was greater than 50000 nM. The molecule also yielded an SI in series [1] greater than 5000. For the same molecule, in [2], the EC50 was found to be 10 nM. In addition, the T1/2 in the series filed under Homo sapiens is recorded as greater than 2880 min. Also, the logP in [3] (read-out: logP) was -1.19.

On to `Cc1cn(C2CC(N=[N+]=[N-])C(COC(=O)NCCCC(=O)OC(C)(C)C)O2)c(=O)[nH]c1=O` (stereo not given), for which, in the series on MT4, the CC50 is greater than 50000 nM. For the same molecule, in series [1], the SI was greater than 5000. Moreover, in [2], the concentration for a half-maximal effect (EC50) was found to be 10 nM. The T1/2 in the series listed under Homo sapiens is given as greater than 2880 min. The logP in series [3] (read-out: logP) was found to be 0.88.

As to `Cc1cn([C@H]2C[C@H](N=[N+]=[N-])[C@@H](CO)O2)c(=O)[nH]c1=O` [ZIDOVUDINE], the CC50 is greater than 100000 nM with MT4, 8000 nM in [5] and 11000 nM in series [6]. Also, the concentration giving a half-maximal response (EC50) in series [4] was found to be 11 nM; in [2], 25 nM; in series [7], 7.5 nM.

For the molecule `Cc1cn(C2CC(N=[N+]=[N-])C(COC(=O)OCCCCCO)O2)c(=O)[nH]c1=O` (stereo not given), the cytotoxic concentration (CC50) in the series on MT4 is greater than 50000 nM. The molecule also displayed an SI in series [1] greater than 5000. Besides, it took 10 nM to reach a half-maximal effect in series [2] (EC50). Moreover, in the series filed under Homo sapiens, the T1/2 was 16 min. Moreover, the lipophilicity (logP) in series [3] (read-out: logP) was -0.45.

For the molecule `Cc1cn(C2CC(N=[N+]=[N-])C(COC(=O)CCCN)O2)c(=O)[nH]c1=O` (stereo not given), the CC50 in the series on MT4 is greater than 50000 nM. Also, the SI in series [1] was greater than 2500. This molecule also had an EC50 in series [2] of 20 nM. The T1/2 in the series filed under Homo sapiens turned out to be 26 min. The lipophilicity (logP) in series [3] (read-out: logP) is -0.9.

In the series on MT4, `Cc1cn(C2CC(N=[N+]=[N-])C(COC(=O)OCCCC(=O)OC(C)(C)C)O2)c(=O)[nH]c1=O` (stereo not given) came in with a CC50 greater than 50000 nM. The same molecule came in with an SI in series [1] greater than 10000. Also, a half-maximal response in [2] (EC50) required 5 nM. For the same molecule, the T1/2 in the series filed under Homo sapiens is reported as 16 min. In addition, in [3] (read-out: logP), the logP came out at 1.14.

Molecule `Cc1cn(C2CC(N=[N+]=[N-])C(COC(=O)CCCC(=O)O)O2)c(=O)[nH]c1=O` (stereo not given) returned a half-maximal cytotoxic concentration (CC50) in the series with MT4 greater than 50000 nM. In addition, in series [1], the SI was greater than 7140. This molecule also registered an EC50 in series [2] of 7 nM. Moreover, the T1/2 in the series filed under Homo sapiens is listed as 1800 min. Besides, the logP in series [3] is -0.52.

In turn, `CCCCOC(=O)OCC1OC(n2cc(C)c(=O)[nH]c2=O)CC1N=[N+]=[N-]` (stereo not given) had a CC50 with MT4 greater than 50000 nM. For the same molecule, the SI in [1] was greater than 6250. The molecule also yielded a concentration giving a half-maximal response (EC50) in [2] of 8 nM. Further, the T1/2 in the series listed under Homo sapiens is on record as 9 min. In addition, the logP in series [3] (read-out: logP) came to 1.02.

The molecule `Cc1cn(C2CC(N=[N+]=[N-])C(COC(=O)OCCCO)O2)c(=O)[nH]c1=O` (stereo not given) displayed a half-maximal cytotoxic concentration (CC50) in the series with MT4 greater than 50000 nM. The same molecule came in with an SI in series [1] greater than 5000. Moreover, a half-maximal effect in [2] (EC50) was put at 10 nM. The T1/2 in the series listed under Homo sapiens is listed as 10 min. The molecule further came in with a lipophilicity (logP) in series [3] of -0.98.

Molecule `Cc1cn(C2CC(N=[N+]=[N-])C(COC(=O)NCCCO)O2)c(=O)[nH]c1=O` (stereo not given) gave a CC50 in the series on MT4 greater than 50000 nM. For the same molecule, in series [1], the SI was greater than 500. This molecule yielded a 50% effective concentration (EC50) in series [2] of 100 nM. In addition, the T1/2 in the series filed under Homo sapiens is greater than 2880 min. Besides, in series [3] (read-out: logP), the log partition coefficient (logP) was -1.24.

`Cc1cn(C2CC(N=[N+]=[N-])C(COC(=O)OCCCC(=O)O)O2)c(=O)[nH]c1=O` (stereo not given) showed a half-maximal cytotoxic concentration (CC50) in the series on MT4 greater than 50000 nM. The molecule further had an SI in [1] greater than 10000. Also, the EC50 in series [2] was 5 nM. The T1/2 in the series filed under Homo sapiens was 780 min. The logP in series [3] (read-out: logP) is -0.55.

For `Cc1cn(C2CC(N=[N+]=[N-])C(COC(=O)OCCCCO)O2)c(=O)[nH]c1=O` (stereo not given), the values for the CC50 (in the series with MT4; in [5]; in [6]) were greater than 50000 nM, 29000 nM and 24000 nM, respectively. Besides, the EC50 in series [4] amounted to 0.78 nM; in series [2] it was 0.5 nM; in series [7] it was 0.78 nM. For the same molecule, the T1/2 in the series filed under Homo sapiens is recorded as 30 min. The same molecule displayed a logP in [3] of -0.68.

As for `Cc1cn(C2CC(N=[N+]=[N-])C(COC(=O)OCCO)O2)c(=O)[nH]c1=O` (stereo not given), the 50% cytotoxic concentration (CC50) in the series on MT4 was greater than 50000 nM. Moreover, in [1], the SI is greater than 5000. This molecule yielded a 50% effective concentration (EC50) in series [2] of 10 nM. In addition, in the series filed under Homo sapiens, the T1/2 is reported as less than 1 min. The lipophilicity (logP) in [3] is -1.2.

For `Cc1cn(C2CC(N=[N+]=[N-])C(COC(=O)NCCCC(=O)O)O2)c(=O)[nH]c1=O` (stereo not given), in the series on MT4, the CC50 is greater than 50000 nM. Also, the SI in series [1] was greater than 500. For the same molecule, the EC50 in series [2] amounted to 100 nM. Further, the T1/2 in the series filed under Homo sapiens is reported as greater than 2880 min. In [3] (read-out: logP), the logP was -0.81.

In the series on MT4, `Cc1cn(C2CC(N=[N+]=[N-])C(COC(=O)OCCCCCCO)O2)c(=O)[nH]c1=O` (stereo not given) registered a half-maximal cytotoxic concentration (CC50) greater than 50000 nM. This molecule also showed an SI in series [1] greater than 5000. The same molecule showed an EC50 in [2] of 10 nM. For the same molecule, the T1/2 in the series filed under Homo sapiens is recorded as 7 min. Further, the logP in series [3] (read-out: logP) stood at 0.08.

For `Cc1cn(C2CC(N=[N+]=[N-])C(COC(=O)OCCCN)O2)c(=O)[nH]c1=O` (stereo not given), the CC50 in the series on MT4 was greater than 50000 nM. The SI in [1] is greater than 2500. This molecule had an EC50 in series [2] of 20 nM. Moreover, the T1/2 in the series filed under Homo sapiens is 8 min. Also, the log partition coefficient (logP) in series [3] (read-out: logP) was -0.93.

For `Cc1cn(C2CC(N=[N+]=[N-])C(COC(=O)OCCCCCCCCO)O2)c(=O)[nH]c1=O` (stereo not given), the 50% cytotoxic concentration (CC50) in the series with MT4 was greater than 50000 nM. Moreover, the SI in series [1] was greater than 20000. This molecule also had an EC50 in series [2] of 2.5 nM. Further, the T1/2 in the series listed under Homo sapiens stood at 2 min. The logP in [3] (read-out: logP) came to 1.14.
